The results in this text go back to ChEMBL document CHEMBL3352589, “The use of spirocyclic scaffolds in drug discovery” (Bioorg Med Chem Lett, 2014).

In the assay the target is 5-hydroxytryptamine receptor 6 (Homo sapiens, UniProt P50406). In words: Antagonist activity at 5-HT6 receptor (unknown origin).
Sequence of 5-hydroxytryptamine receptor 6 (P50406 whole entry): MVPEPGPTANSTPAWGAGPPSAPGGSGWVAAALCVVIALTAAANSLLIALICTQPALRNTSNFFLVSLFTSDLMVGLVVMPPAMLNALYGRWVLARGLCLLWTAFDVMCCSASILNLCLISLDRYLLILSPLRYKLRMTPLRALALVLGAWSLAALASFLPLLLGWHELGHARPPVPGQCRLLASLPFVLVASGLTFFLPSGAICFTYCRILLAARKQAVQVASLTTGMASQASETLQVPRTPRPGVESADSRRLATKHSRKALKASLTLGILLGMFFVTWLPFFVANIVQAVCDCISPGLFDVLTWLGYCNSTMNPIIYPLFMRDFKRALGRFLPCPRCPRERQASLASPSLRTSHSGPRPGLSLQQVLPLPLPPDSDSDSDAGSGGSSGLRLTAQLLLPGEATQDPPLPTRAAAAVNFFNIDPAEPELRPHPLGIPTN

As to `CN1CCc2ccc(N3C(=O)CSC34C(=O)Nc3ccccc34)cc2CC1` (racemic), the Ki amounted to 26 nM. With `CN1CCc2ccc(N3C(=O)CSC34C(=O)Nc3ccccc34)cc2CC1` (single isomer, unassigned) the figure was 15 nM.

A word on the Ki: it is the dissociation constant of the complex between target and ligand, obtained from inhibition or displacement. Lower therefore signals higher affinity.
